Like-named read-outs stand apart in the source and are kept apart here.
Molecular target: T1, PfUCHL3 (Plasmodium falciparum, UniProt Q8IKM8)
T1 construct: gene UCHL3
Assay: fluorimetric Ub-AMC deubiquitinase assay with recombinant purified PfUCHL3, dose-response
Type: biochemical

T1 sequence (Q8IKM8 whole entry): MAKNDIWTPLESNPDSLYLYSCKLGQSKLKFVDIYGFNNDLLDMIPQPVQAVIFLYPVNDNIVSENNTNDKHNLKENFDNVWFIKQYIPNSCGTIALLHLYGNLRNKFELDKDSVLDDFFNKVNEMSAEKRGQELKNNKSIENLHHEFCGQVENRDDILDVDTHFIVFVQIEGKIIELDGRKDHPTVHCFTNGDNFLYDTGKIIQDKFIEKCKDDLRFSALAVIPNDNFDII

| Compound | IC50 (read-out: IC50) | IC50 |
| --- | --- | --- |
| Cc1cc2nc(NC(=O)C(C)(C)C)nc(Cl)c2n1Cc1ccc(Cl)cc1 [compound 2, MMV688704] | 87.1 ± 1.75 µM | – |
| CC1COC2(CCN(c3nc(=O)c4cc(C(F)(F)F)cc([N+](=O)[O-])c4s3)CC2)O1 (centres unmarked) [compound 1, MMV676603] | – | 25.1 ± 1.8 µM |

— article PMC8766476, “Repurposing the Pathogen Box compounds for identification of potent anti-malarials against blood stages of Plasmodium falciparum with PfUCHL3 inhibitory activity” (Scientific Reports, 2022)
